Patent publication US20230146870A1, “METHOD TO QUANTIFY AFFINITY AND SELECTIVITY OF SMALL MOLECULES FOR PROTEINS IN LIVING CELLS” (Ohio State Innovation Foundation, priority 2021, published 2023)
pIC50, pKd, pKi: −log10 of the molar value. Entries after “also recorded” stand apart in the source; their conditions may differ. Where two headings read alike, the source gives them in different places.

Assays:
[1] = target: mouse PKCα-mVenus (Mus musculus, UniProt P20444); assay: Apparent cellular Kd by flow cytometry, HEK293 cells overexpressing PKCα-mVenus (Example 2); conditions: 90 min
[2] = target: mouse PKCγ-mVenus (Mus musculus, UniProt P63318); assay: Apparent cellular Kd by flow cytometry, HEK293 cells overexpressing PKCγ-mVenus (Example 2); conditions: 90 min
[3] = target: full-length rat PKCγ-EGFP (Rattus norvegicus, UniProt P63319); assay: Cellular binding by flow cytometry, HEK293 cells expressing full-length PKCγ-EGFP; conditions: verapamil 100 μM
[4] = target: T1, mouse PKCβI-mVenus (Mus musculus, UniProt P68404); assay: Apparent cellular Kd by flow cytometry, HEK293 cells overexpressing PKCβI-mVenus (Example 2); type: binding
T1 construct: eight plasmids encoding full length mouse PKC isozymes fused to; expressed in transfected cells; host or cells: HEK293
Procedure: The apparent Kd values of these fluorescent probes were measured using different PKC isozymes (e.g., PKCβI, FIGS. 20A-20D). HEK293 cells were transfected to overexpress PKCβ-mVenus and treated with probes in the presence of verapamil (100 μM) as an inhibitor of efflux.

[5] = tested on: HEK293 cells; assay: Viability of HEK293 cells during probe treatment by flow cytometry; type: cell-based; conditions: 33 at 1 μM, verapamil 0, 25 or 100 μM, 1 h
Procedure: FIGS. 14A and 14B show quantification of fluorescence (FIG. 14A) and viability (FIG. 14B) upon treatment of HEK293 cells with compound 33 (1 μM) and verapamil (0, 25 or 100 μM) for 1 h. Total [DMSO]=0.2%. Error bars represent SD (N=3). Statistical significance analyzed by one-way ANOVA (GraphPad Prism 9). **, P<0.01; ****, P<0.0001. Samples were analyzed with a Beckman Coulter Cytoflex flow cytometer. (Ex. 405 nm/Em. […]). […] Compound 33 is non-toxic under these conditions.
FIGS. 16A-16D show quantification of non-specific binding and cell viability after treatment for 1 h at 37° C. with compound 33 (2-fold serial dilution from 5 μM) and verapamil (75 μM) in the presence of different competitors (PMA or non-fluorescent PB-carbamate 8, at 0, 5 and 10 μM). Total [DMSO]=0.3%. (FIG. 16A) Parental HEK293 cells analyzed after treatment with 33 in the presence or absence of PMA or compound 8. […] Samples were analyzed with a Beckman Coulter Cytoflex flow cytometer and gated to analyze living cells (Ex. 405 nm; Em. 450/45 nm).
The efflux of this fluorescent probe was next studied by flow cytometry. […] The blue fluorescent signal (405 nm laser) of HEK293 cells overexpressing green fluorescent full-length PKCγ-EGFP was elucidated (the median protein concentration was determined to be ˜5.0 μM as measured by flow cytometry by comparison with Spherotech rainbow bead standards as described herein). […]

[6] = target: C1 domain of human PKD (purified C1AB domain) (Homo sapiens, UniProt Q15139); assay: [3H]PDBu competition assay with purified C1AB domain of PKD; type: binding
Procedure: Affinities were measured with a radioactive […]
The results of the biochemical binding assays with cellular binding assays were used to quantitatively investigate differences between conventional biochemical measurements of Ki values with this novel method for determination of Ki values in cellule.

[7] = tested on: Jurkat cells; assay: Cellular viability assay, Jurkat lymphocytes, 48 h, flow cytometry (Example 2); type: cell-based; conditions: Homo sapiens, Jurkat, read-out: toxicity towards Jurkat cells, IC50
Procedure: The impact of membrane transporters on the toxicity profile of 49 was also studied.
Jurkat lymphocytes were seeded into a 96-well plate in fresh complete medium at 2.5×10^5 cells/mL and 200 μL per well. All compounds were serial diluted in DMSO and added to complete media to achieve a 1:1000 dilution factor (0.10% DMSO in each well). […] The total cell-count for each well was determined by flow cytometry and staining with propidium iodide was used to identify populations of live cells (only dead cells are stained by PI). Counts of viable cells for each treatment, determined in triplicate, were used to generate dose-response curves. These curves were fitted with non-linear regression using an inhibitor vs. response variable slope […] model (GraphPad Prism 9) to determine IC50 values.

[8] = target: T2, rat EGFP-N2-PKCγ (Rattus norvegicus, UniProt P63319); assay: Confocal video microscopy of PKCγ trafficking in HEK293 cells; type: cell-based; conditions: 33 at 1 μM, after 10 min
T2 construct: transiently transfected with DNA encoding the full-length rat PKCγ-EGFP; host or cells: HEK293
From the text: Blue fluorescence of 33 is shown in the right panels (Ex. 405 nm, Em. 410-495 nm, Gain 50), green fluorescence of transiently transfected EGFP-N2-PKCγ protein is shown in the middle panels (Ex. 488 nm, Em. 500-650 nm, Gain 700), and DIC images are shown in the left panels. Trafficking of PKCγ-mEGFP protein to membranes induced by 33 can be observed Images were acquired with a Leica SP8 microscope (63× objective). Scale bar=25 μm.
It appears that this is due to efflux of this compound from cells mediated by efflux transporters such as Pgp. To explore this idea, two-color confocal video microscopy was used. Briefly, HEK293 cells were transiently transfected with commercially available plasmid DNA encoding rat PKCγ fused to GFP (EGFP-N2-PKCγ, Addgene Plasmid #21204).^84 The HEK293 cell line is known to expresses multiple efflux transporters including Pgp (MDR1/ABCB1).^85 The fluorescence of GFP was monitored by excitation with a 488 nm laser and emission collected between 500-650 nm. […] In addition, the cell morphology was recorded using differential interference contrast microscopy (DIC). The localization of the fluorescent probe and the GFP fusion protein was recorded using video confocal microscopy immediately after treatment of transfected cells with 33. […]

[9] = target: T3, C1A-C1A-EYFP (PKCγ) (UniProt P63319); assay: Cellular binding by flow cytometry, HEK293 cells expressing C1A-C1A-EYFP (PKCγ); conditions: verapamil 100 μM
T3 construct: apparent Kd; other: verapamil 100 μM, 90 min, 37° C., DMEM high glucose, 4% FBS; half time (t1/2) of cellular fluorescence; other: 33 at 5 μM, verapamil 100 μM, room temperature; fused on or other part: EYFP at the C-terminus; the C1A module is present twice in one chain
From the text: The dissociation constant can be defined as the ratio of koff divided by kon. This value is also the concentration where the ligand occupies 50% of the receptor.^94 Kd is only meaningful when equilibrium is reached, where the ligand-receptor complex is formed at the same rate as it dissociates into free ligand and receptor (FIG. 15). This binding equilibrium is established when essentially no further change in the amount of bound complex is observed over time. To evaluate the time needed for equilibration, we treated HEK293 cells that overexpress C1A-C1A-EYFP (PKCγ) with 33 (0 and 5 μM) in the presence or absence of verapamil (100 μM) and cellular fluorescence was measured by flow cytometry as a function of time (FIG. 18A). […] This optimization was used to establish a 90 min equilibration period for further assay optimization.
The presence of fetal bovine serum (FBS) in the culture media also influenced the binding by sequestering the free ligand. The assay conditions were finalized using HEK293 cells incubated with the probe in the presence of verapamil for 90 min at 37° C. in DMEM media (high glucose, 4% FBS).

T1 sequence (P68404 whole entry, the tested form may be a part): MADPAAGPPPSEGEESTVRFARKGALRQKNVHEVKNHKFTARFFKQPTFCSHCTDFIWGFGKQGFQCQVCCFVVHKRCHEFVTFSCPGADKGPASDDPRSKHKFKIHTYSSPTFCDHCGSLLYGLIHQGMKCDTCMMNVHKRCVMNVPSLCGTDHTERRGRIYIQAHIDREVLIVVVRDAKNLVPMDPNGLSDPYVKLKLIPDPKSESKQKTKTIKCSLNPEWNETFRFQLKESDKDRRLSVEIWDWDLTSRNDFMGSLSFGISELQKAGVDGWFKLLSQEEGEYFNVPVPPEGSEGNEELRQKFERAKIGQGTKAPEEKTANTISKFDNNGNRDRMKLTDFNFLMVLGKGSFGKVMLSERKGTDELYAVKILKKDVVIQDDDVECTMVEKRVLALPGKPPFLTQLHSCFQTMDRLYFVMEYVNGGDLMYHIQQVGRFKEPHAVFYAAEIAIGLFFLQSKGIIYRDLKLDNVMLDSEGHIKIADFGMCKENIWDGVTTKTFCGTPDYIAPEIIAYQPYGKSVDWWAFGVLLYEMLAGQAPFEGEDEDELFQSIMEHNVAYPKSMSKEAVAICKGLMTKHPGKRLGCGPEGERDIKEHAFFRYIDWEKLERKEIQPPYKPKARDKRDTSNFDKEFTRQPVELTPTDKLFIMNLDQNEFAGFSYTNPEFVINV
C1 domain of human PKD (purified C1AB domain), sequence (Q15139 whole entry, the tested form may be a part): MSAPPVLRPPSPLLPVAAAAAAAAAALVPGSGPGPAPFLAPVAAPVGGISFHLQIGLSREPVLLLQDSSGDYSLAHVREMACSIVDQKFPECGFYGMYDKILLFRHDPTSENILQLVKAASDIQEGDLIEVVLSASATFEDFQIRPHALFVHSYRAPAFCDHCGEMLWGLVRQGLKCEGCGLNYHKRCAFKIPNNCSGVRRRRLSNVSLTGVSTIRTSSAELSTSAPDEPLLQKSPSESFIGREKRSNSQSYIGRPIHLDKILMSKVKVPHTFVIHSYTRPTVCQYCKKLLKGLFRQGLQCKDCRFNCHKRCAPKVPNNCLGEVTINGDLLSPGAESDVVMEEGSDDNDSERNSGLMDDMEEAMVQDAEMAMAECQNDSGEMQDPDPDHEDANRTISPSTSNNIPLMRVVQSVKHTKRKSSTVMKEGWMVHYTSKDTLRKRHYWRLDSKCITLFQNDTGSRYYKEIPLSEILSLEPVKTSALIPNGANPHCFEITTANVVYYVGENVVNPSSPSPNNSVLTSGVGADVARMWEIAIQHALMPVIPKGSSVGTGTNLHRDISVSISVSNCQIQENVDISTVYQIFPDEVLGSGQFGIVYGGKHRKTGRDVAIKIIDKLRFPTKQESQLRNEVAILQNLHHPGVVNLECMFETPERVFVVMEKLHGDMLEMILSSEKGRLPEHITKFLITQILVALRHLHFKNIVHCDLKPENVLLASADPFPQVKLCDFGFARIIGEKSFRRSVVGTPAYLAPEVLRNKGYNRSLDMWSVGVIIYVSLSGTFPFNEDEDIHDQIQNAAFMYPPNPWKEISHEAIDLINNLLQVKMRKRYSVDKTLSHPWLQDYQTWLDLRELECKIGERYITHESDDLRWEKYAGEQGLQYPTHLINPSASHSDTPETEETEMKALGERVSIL

## CC1=C[C@H]2[C@@]3(O)[C@H](C)[C@@H](O)[C@]4(OC(=O)N(C)CCCCCCCCCCCCN(C)C(=O)c5cc6ccc(O)cc6oc5=O)[C@H]([C@@H]3C=C(CO)C[C@]2(O)C1=O)C4(C)C [probe 34, (1aR,1bS,4aR,7aS,7bS,8R,9R,9aS)-4a,7b,9-trihydroxy-3-(hydroxymethyl)-1,1,6,8-tetramethyl-5-oxo-1,1a,1b,4,4a,5,7a,7b,8,9-decahydro-9aH-cyclopropa[3,4]benzo[1,2-e]azulen-9a-yl (12-(7-hydroxy-N-methyl-2-oxo-2H-chromene-3-carboxamido)dodecyl)(methyl)carbamate]
[1]
  specific binding to PKCα-mVenus: no specific binding
[2]
  specific binding to PKCγ-mVenus: no specific binding
[3]
  total binding fluorescence vs non-specific binding: identical or lower than the non-specific binding value
[4]; 90 min
  specific binding to PKCβI-mVenus: not measurable

## CC1=C[C@H]2[C@@]3(O)[C@H](C)[C@@H](O)[C@]4(OC(=O)N(C)CCCCCCCCCCCCN(C)C(=O)c5cc6cc(F)c(O)c(F)c6oc5=O)[C@H]([C@@H]3C=C(CO)C[C@]2(O)C1=O)C4(C)C [probe 33, (1aR,1bS,4aR,7aS,7bS,8R,9R,9aS)-4a,7b,9-trihydroxy-3-(hydroxymethyl)-1,1,6,8-tetramethyl-5-oxo-1,1a,1b,4,4a,5,7a,7b,8,9-decahydro-9aH-cyclopropa[3,4]benzo[1,2-e]azulen-9a-yl (12-(6,8-difluoro-7-hydroxy-N-methyl-2-oxo-2H-chromene-3-carboxamido)dodecyl)(methyl)carbamate]
[5]
  toxicity to HEK293 cells: non-toxic; also recorded: no toxicity
[6]; Ki for purified C1AB domain of PKD
  pKi: 7.52
[6]; read-out: Ki for purified C1AB domain of PKD
  pKi: ~7.52
[7]
  pIC50: ~4.92
[4]
  pKd: 5.57
[8]
  trafficking of PKCγ: translocation of PKCγ to the plasma membrane
[9]; 33 at 5 μM, room temperature
  half time (t1/2) of cellular fluorescence: about 32 min
[9]; 90 min, 37° C., DMEM high glucose, 4% FBS, read-out: apparent Kd
  pKd: 5.19
